According to ChEMBL document CHEMBL1201862, “PubChem BioAssay data set” (2004):
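Five concentrations, 48 hours, 96-well plates. GI50 is the concentration that inhibits growth by half.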 The source made the active and inactive calls. Rule as the data show it: active = GI50 up to about 1.1 µM and inactive = higher.

Experiments:
Test in all cases: DTP human tumour cell line panel, 48 h
A549 = system: A549
UACC-257 = system: UACC-257
LOX IMVI = system: LOX IMVI
HOP-92 = system: HOP-92
HCC 2998 = system: HCC 2998
HOP-62 = system: HOP-62
KM12 = system: KM12
HL-60 = system: HL-60
RPMI-8226 = system: RPMI-8226
NCI-H460 = system: NCI-H460
A498 = system: A498
TK-10 = system: TK-10
SNB-19 = system: SNB-19
HCT-15 = system: HCT-15
SK-OV-3 = system: SK-OV-3
Malme-3M = system: Malme-3M
MOLT-4 = system: MOLT-4
EKVX = system: EKVX
U-251 = system: U-251
SNB-75 = system: SNB-75

| SMILES | GI50 (A549) | GI50 (UACC-257) | GI50 (LOX IMVI) | GI50 (HOP-92) | GI50 (HCC 2998) | GI50 (HOP-62) | GI50 (KM12) | GI50 (HL-60) | GI50 (RPMI-8226) | GI50 (NCI-H460) | GI50 (A498) | GI50 (TK-10) | GI50 (SNB-19) | GI50 (HCT-15) [µM] | GI50 (SK-OV-3) | GI50 (Malme-3M) | GI50 (MOLT-4) | GI50 (EKVX) | GI50 (U-251) | GI50 (SNB-75) |
| --- | --- | --- | --- | --- | --- | --- | --- | --- | --- | --- | --- | --- | --- | --- | --- | --- | --- | --- | --- | --- |
| CC[C@@H]1CN2CCC1C[C@@H]2C(O)c1ccnc2ccc(OCCN3CCN(CCOc4ccc5nccc(C(O)[C@@H]6C[C@@H]7CCN6C[C@@H]7CC)c5c4)CC3)cc12 (some centres undefined) | 15.3 µM (inactive) | 16.1 µM (inactive) | 14.8 µM (inactive) | 8.81 µM (inactive) | 9.48 µM (inactive) | 18.5 µM (inactive) | 16.1 µM (inactive) | 21.9 µM (inactive) | 2.59 µM (inactive) | 17.3 µM (inactive) | 20.2 µM (inactive) | 14.4 µM (inactive) | 14.5 µM (inactive) | 24.2 | 18.3 µM (inactive) | 24.8 µM (inactive) | 6.53 µM (inactive) | 17.1 µM (inactive) | 16.7 µM (inactive) |  |
| CC(=O)Oc1ccc(C2COc3cc(OC(C)=O)c(OC(C)=O)cc3C2)cc1 (centres undefined) | 22.3 µM (inactive) | 17.7 µM (inactive) | > 37.1 µM (inactive) | 3.88 µM (inactive) | 21.3 µM (inactive) | 25.4 µM (inactive) | 25 µM (inactive) | 4.11 µM (inactive) | 14.9 µM (inactive) | 17.9 µM (inactive) | 9.04 µM (inactive) |  | 32.2 µM (inactive) | 18.5 | 20.7 µM (inactive) | 16.5 µM (inactive) | 18.3 µM (inactive) | 17.3 µM (inactive) | 13.2 µM (inactive) | 6.07 µM (inactive) |
| C[C@]12CC[C@H]3[C@@H](CC=C4C[C@@H](O)CC[C@@]43C)[C@@H]1C/C(=C\c1ccc([N+](=O)[O-])cc1)[C@@H]2O | 10.4 µM (inactive) | 16.3 µM (inactive) | 18.8 µM (inactive) | 21.1 µM (inactive) | 11.7 µM (inactive) | 11.7 µM (inactive) | 18.5 µM (inactive) | 2.65 µM (inactive) | 7.48 µM (inactive) | 16.1 µM (inactive) | 15.1 µM (inactive) | 19.4 µM (inactive) | 16.9 µM (inactive) | 10.9 | 13.7 µM (inactive) | 16 µM (inactive) | 4.18 µM (inactive) | 10.6 µM (inactive) |  | 17.4 µM (inactive) |
| N#Cc1c(-c2nc3ccccc3s2)c(=O)oc2cc(O)ccc12 | 26.9 µM (inactive) | 24.3 µM (inactive) | 28.6 µM (inactive) | 3.52 µM (inactive) | 30.3 µM (inactive) | 16.7 µM (inactive) | 22.3 µM (inactive) | 23.5 µM (inactive) | 13.1 µM (inactive) | 27.8 µM (inactive) | 23 µM (inactive) | > 100 µM (inactive) | 46 µM (inactive) | 27.1 |  | 18.3 µM (inactive) | 28 µM (inactive) | 39.6 µM (inactive) | 18 µM (inactive) | > 100 µM (inactive) |
| CCCc1c(-c2ccccc2)[nH]c2ccccc2c1=O |  | > 100 µM (inactive) | 23.9 µM (inactive) | > 100 µM (inactive) | 25.2 µM (inactive) | 34.1 µM (inactive) | 27.7 µM (inactive) | > 100 µM (inactive) | 54.6 µM (inactive) | 29.9 µM (inactive) | 29 µM (inactive) | 32.6 µM (inactive) | 65.2 µM (inactive) | 27.4 | 42.3 µM (inactive) | 33 µM (inactive) | > 100 µM (inactive) | 37.6 µM (inactive) | 51.3 µM (inactive) |  |
